Source: patent US4853401A, “Spiro-hydantoins as aldose reductase inhibitors” (priority 1987, dated 1989)

How the values were obtained:
[1] = system: accumulation of sorbitol in the crystalline lenses; test: Inhibition of accumulation of sorbitol in crystalline lenses of diabetic rats; type: in vivo, Sprague Dawley rats; settings: for Inhibition of accumulation of sorbitol in vivo, crystalline lenses: oral 25 mg/kg at 0, 7 and 24 h, sacrificed 27 h; for inhibition of accumulation of sorbitol in crystalline lenses and sciatic nerves (in words): oral 25 mg/kg
Protocol: (§1) 2.1 Inhibition of accumulation of sorbitol in crystalline lenses and nerves of diabetic rats:
(§2) The effects of the products according to the invention on the proportion of plasma glucose and the accumulation of sorbitol in the crystalline lenses and sciatic nerves of rats made diabetic by streptozotocin were examined by the method of M. J. Peterson, et al (Metabolism, 28, 456-461 (1979)).
(§3) Fasted Sprague Dawley rats were made diabetic by intraperitoneal injection of streptozotocin (75 mg/kg). The product under test was orally administered at a dose of 25 mg/kg after 0, 7 and 24 hours. The rats were sacrificed 27 hours after induction of diabetes. The crystalline lenses and sciatic nerves were taken and preserved at -20° C. until analysed. The crystalline lenses and sciatic nerves were homogenized in water and the proteins were precipitated from ethanol. The precipitate was eliminated by centrifuging and the supernatant liquid was lyophylised. The sorbitol in the sample was determined by the method of B. Bjorkqvist (J. of Chromatograph, 218, 65-71 (1981)), adapted by A. Lenaers et al. (Arch. Intern. Physiol. Bioch., 91, B, 62-63 (1983)).
(§4) The sample was dissolved in pyridine containing galactitol as an internal standard. Derivatives were formed therefrom by phenylisocyanate during incubation for 1 hour at 60° C. The reaction was then stopped by adding methanol and the derivatives were separated and determined by HPLC.
(§5) The results are expressed as percentage inhibition of the accumulation of sorbitol, compared with the controls.

[2] = Acute oral toxicity (LD50); type: in vivo; settings: mouse, in vivo, mice, read-out: Lethal dose LD50
Protocol: The LD 50 was calculated by the method of Litchfield and Wilcoxon (J. Pharmacol. Exp. Ther., 96, 99, 1949) and is expressed in mg/kg. The products were orally administered to mice.
Behaviour was studied, 2, 4, 6 and 24 hours after treatment. Observation was continued if symptoms persisted at that time. Deaths were recorded during the 14 days after treatment. The results are given in Table II, in which the numbers of the compounds are the same as the numbers given in column 1 of Table I.

[3] = system: accumulation of sorbitol in the sciatic nerves; test: Inhibition of accumulation of sorbitol in sciatic nerves of diabetic rats; type: in vivo, Sprague Dawley rats; settings: oral 25 mg/kg at 0, 7 and 24 h, sacrificed 27 h
Protocol: as §1, §2, §3, §4, §5

[4] = molecular target: T1, aldose reductase (Rattus norvegicus, UniProt P07943); test: Inhibition of enzymatic activity of aldose reductase in vitro; type: biochemical; settings: 10^-4 M, rat crystalline lens enzyme, pH 6.2, D,L-glyceraldehyde substrate; read-out: Inhibition of enzymatic activity of AR in vitro
T1 construct: The supernatant liquid formed the enzyme solution used for the test; from tissue; host or cells: rat crystalline lens, water homogenate, supernatant
Text: 1.1 Inhibiting effect on enzymatic activity of aldose reductase:
The method described by S. Hayman and J. H. Kinoshita (J. Biol. Chem., 240, 877 (1965)) was used for in vitro testing of the aforementioned effect of the products according to the invention.
Rat's crystalline lens was homogenized in water and centrifuged to eliminate insoluble substances. The supernatant liquid formed the enzyme solution used for the test.
The effect of products according to the invention in inhibiting enzymatic activity of aldose reductase was determined by spectrophotometrically following for 5 minutes the disappearance of NADPH in an aqueous solution containing 0.067M phosphate buffer (final pH: 6.2), 0.40M lithium sulphate, 5.10^-5 M NADPH, 10^-4 M of the product under test and 100 μl of the enzyme solution, to which 10^-2 M of D,L-glyceraldehyde had been added as substrate. (NADPH=reduced form of nicotinamide adenine dinucleotide phosphate).
The inhibiting effect observed in the presence of 10^-4 M of product under test relative to the reaction in the absence of a compound according to the invention, is expressed as a percentage.

[5] = system: accumulation of galactitol in fibroblasts obtained from human skin; test: Inhibition of accumulation of galactitol in fibroblasts; type: cell-based; settings: Fibroblast, 48 h, 37° C., galactose 3 mg/ml
Protocol: 1.2 Inhibiting effect on accumulation of galactitol:
A test for evaluating this activity was made in vitro on fibroblasts obtained from human skin.
An experimental model culture was obtained by incubating the cells in the presence of a medium containing a high concentration of galactose (3 mg/ml) and the product under test, and measuring the accumulation of galactitol in the cells after a 48-hour incubation period at 37° C. The cells were then isolated, washed in physiological salt solution and treated with a water-ethanol solution. The medium was centrifuged and the supernatant liquid was lyophylized.
The galactitol in the resulting sample was determined by HPLC (=high pressure liquid chromatography) after derivatives had been obtained with phenyl isocyanate.
The proportion of proteins in the precipitate obtained during the previously-mentioned centrifuging was measured by the method of M. M. Bradford (Anal. Biochem., 72, 248-254 (1976)) and indicated the number of cells present in the sample.
The inhibiting effect of the tested product was expressed as a percentage inhibition of intracellular accumulation of galactitol compared with the controls.

Structure (SMILES)	Inhibition of accumulation of sorbitol in vivo, crystalline lenses [1] [%]	LD50 at 336 h [2] [mg/kg]	Inhibition of accumulation of sorbitol in vivo, in sciatic nerves [3] [%]	inhibition at 100 µM [4] [%]	inhibition of accumulation of sorbitol in crystalline lenses and sciatic nerves (in words) [1]	inhibition at 100 µM ([5]; 10^-4 M) [%]	inhibition at 10 µM ([5]; 10^-5 M) [%]	inhibition at 1 µM ([5]; 10^-6 M) [%]
O=C(OCN1C(=O)N(COC(=O)c2ccccc2)C2(C1=O)c1ccccc1-c1ccccc12)c1ccccc1 [Compound 3]	37	> 3000	55	–	–	–	–	–
O=C(OCN1C(=O)N(COC(=O)Oc2ccccc2)C2(C1=O)c1ccccc1-c1ccccc12)Oc1ccccc1 [Compound 16]	53	> 3000	65	–	–	–	–	–
CCCCC(=O)OCN1C(=O)N(COC(=O)CCCC)C2(C1=O)c1ccccc1-c1ccccc12 [Compound 15]	54	–	74	0	–	–	–	–
O=C(CCCC1CCCCC1)OCN1C(=O)N(COC(=O)CCCC2CCCCC2)C2(C1=O)c1ccccc1-c1ccccc12 [Compound 8]	69	> 3000	85	–	particularly active	–	–	–
O=C(COc1ccccc1)OCN1C(=O)N(COC(=O)COc2ccccc2)C2(C1=O)c1ccccc1-c1ccccc12 [Compound 14]	51	> 1000	61	–	–	–	–	–
COCN1C(=O)NC2(C1=O)c1ccccc1-c1ccccc12 [Compound 17, 1'-(methoxymethyl)-spiro-/fluorene-9,4'-imidazolidine/-2',5'-dione]	86	–	92	84	particularly active	–	–	–
CCCCCCCC(=O)OCN1C(=O)N(COC(=O)CCCCCCC)C2(C1=O)c1ccccc1-c1ccccc12 [Compound 6, bis-(1',3'-n.octanoyloxymethyl)-spiro-/fluorene-9,4'-imidazolidine/-2',5'-dione]	76	> 3000	79	0	–	–	–	–
CC(C)(C)CC(=O)OCN1C(=O)N(COC(=O)CC(C)(C)C)C2(C1=O)c1ccccc1-c1ccccc12 [Compound 9]	49	> 1000	70	–	–	–	–	–
CC(C)(C)C(=O)OCN1C(=O)N(COC(=O)C(C)(C)C)C2(C1=O)c1ccccc1-c1ccccc12 [Compound 4]	51	–	50	–	–	–	–	–
CC(OC(=O)C(C)(C)C)N1C(=O)NC2(C1=O)c1ccccc1-c1ccccc12 (stereo not shown) [Compound 7, 1'-/1-(2,2-dimethylpropanoyloxy)-ethyl/-spiro-/fluorene-9,4'-imidazolidine/-2',5'-dione]	45	–	72	–	–	–	–	–
CCOC(=O)OCN1C(=O)N(COC(=O)OCC)C2(C1=O)c1ccccc1-c1ccccc12 [Compound 10, bis-(1',3'-ethoxycarbonyloxymethyl)-spiro-/fluorene-9,4'-imidazolidine/-2',5'-dione]	80	> 3000	84	–	particularly active	–	–	–
O=C(OCN1C(=O)N(COC(=O)C2CCCC2)C2(C1=O)c1ccccc1-c1ccccc12)C1CCCC1 [Compound 19]	77	> 3000	89	–	particularly active	–	–	–
O=C(OCc1ccccc1)OCN1C(=O)N(COC(=O)OCc2ccccc2)C2(C1=O)c1ccccc1-c1ccccc12 [Compound 13]	33	–	50	–	–	–	–	–
O=C(OCN1C(=O)N(COC(=O)C2CCCCC2)C2(C1=O)c1ccccc1-c1ccccc12)C1CCCCC1 [Compound 12]	12	> 1000	48	–	–	–	–	–
CCC(=O)OCN1C(=O)N(COC(=O)CC)C2(C1=O)c1ccccc1-c1ccccc12 [Compound 5, bis-(1',3'-propanoyloxymethyl)-spiro-[fluorene-9,4'-imidazolidine]-2',5'-dione]	74	–	81	–	particularly active	91	56	24
O=C(Nc1ccccc1)OCN1C(=O)N(COC(=O)Nc2ccccc2)C2(C1=O)c1ccccc1-c1ccccc12 [Compound 18, bis-(1',3'-N-phenylcarbamoyloxymethyl)-spiro-/fluorene-9,4'-imidazolidine/-2',5'-dione]	8	> 3000	17	–	–	–	–	–
CNC(=O)OCN1C(=O)N(COC(=O)NC)C2(C1=O)c1ccccc1-c1ccccc12 [Compound 22]	21	–	17	0	–	–	–	–
CCC(C(=O)OCN1C(=O)N(COC(=O)C(CC)c2ccccc2)C2(C1=O)c1ccccc1-c1ccccc12)c1ccccc1 (stereo not shown) [Compound 20]	60	> 3000	77	–	–	–	–	–
CC(=O)OCN1C(=O)NC2(C1=O)c1ccccc1-c1ccccc12 [Compound 21, 1'-(acetoxymethyl)-spiro-/fluorene-9,4'-imidazolidine/-2',5'-dione]	85	> 1000	94	8	particularly active	–	–	–
O=C(CCCc1ccccc1)OCN1C(=O)N(COC(=O)CCCc2ccccc2)C2(C1=O)c1ccccc1-c1ccccc12 [Compound 11]	4	–	24	0	–	–	–	–
